Reference: PubChem BioAssay (NCI)
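Cells were grown in 96-well plates and exposed to each compound for 48 hours at five concentrations; endpoints were interpolated linearly between bracketing concentrations, or set to the highest concentration if not reached. TGI: total growth inhibition.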

What was measured:
Assay in all cases: NCI-60 cell line screen, 48 h
SK-OV-3 ovarian = test system: SK-OV-3 ovarian
A549 NSCLC = test system: A549 NSCLC
DU-145 prostate = test system: DU-145 prostate
SF-268 CNS = test system: SF-268 CNS
SK-MEL-2 melanoma = test system: SK-MEL-2 melanoma
MCF7 breast = test system: MCF7 breast
OVCAR-5 ovarian = test system: OVCAR-5 ovarian
NCI-H23 lung = test system: NCI-H23 lung
HS 578T breast = test system: HS 578T breast
COLO 205 colon = test system: COLO 205 colon
TK-10 renal = test system: TK-10 renal
SK-MEL-28 melanoma = test system: SK-MEL-28 melanoma
HCT-116 colon = test system: HCT-116 colon
HCC-2998 colon = test system: HCC-2998 colon
U251 CNS = test system: U251 CNS
IGROV1 ovarian = test system: IGROV1 ovarian
HT29 colon = test system: HT29 colon
HCT-15 colon = test system: HCT-15 colon
NCI-H226 lung = test system: NCI-H226 lung
UACC-62 melanoma = test system: UACC-62 melanoma
SF-295 CNS = test system: SF-295 CNS
PC-3 prostate = test system: PC-3 prostate
K-562 leukemia = test system: K-562 leukemia
MDA-N = test system: MDA-N
SW-620 colon = test system: SW-620 colon
NCI-H522 lung = test system: NCI-H522 lung
A498 renal = test system: A498 renal
OVCAR-8 ovarian = test system: OVCAR-8 ovarian
SN12C renal = test system: SN12C renal
MDA-MB-231 breast = test system: MDA-MB-231 breast
SK-MEL-5 melanoma = test system: SK-MEL-5 melanoma
T-47D breast = test system: T-47D breast
SNB-19 CNS = test system: SNB-19 CNS
SF-539 CNS = test system: SF-539 CNS
HOP-92 NSCLC = test system: HOP-92 NSCLC
HOP-62 NSCLC = test system: HOP-62 NSCLC
BT-549 breast = test system: BT-549 breast
UACC-257 melanoma = test system: UACC-257 melanoma
CAKI-1 renal = test system: CAKI-1 renal
RXF 393 renal = test system: RXF 393 renal
OVCAR-4 ovarian = test system: OVCAR-4 ovarian
786-0 renal = test system: 786-0 renal
SNB-75 CNS = test system: SNB-75 CNS
EKVX NSCLC = test system: EKVX NSCLC
ACHN renal = test system: ACHN renal
UO-31 renal = test system: UO-31 renal
RPMI-8226 leukemia = test system: RPMI-8226 leukemia
M14 melanoma = test system: M14 melanoma
NCI-H460 lung = test system: NCI-H460 lung
MDA-MB-435 = test system: MDA-MB-435

Measured: TGI

C=CCCC1CCCNC1=S (stereo not given)
> 100 µM: all assays above
